Entries after “also recorded” stand apart in the source; their conditions may differ.

Data set [1] relates to human iPS-derived cardiac progenitor cells (CPCs). Description: CPC proliferation assay (nuclear count). It is filed as cell-based. As to conditions: iPSC-derived CPC proliferation, 10-point concentration response, read-out: CPC pEC50 (converted).
Data set [2] deals with HuES6 hPSC-derived cardiac progenitors. Put plainly: HuES6-derived cardiac progenitors replated on day 5: cell number, RT-qPCR, immunocytochemistry. The conditions noted are these: for terminal cardiac differentiation, in words / expression of cardiac progenitor markers vs untreated: 1 μM, day-5 replated cells, 4 days; for expression of cardiac progenitor markers vs untreated: with the exception of ISL1; for effect on cell proliferation / cell numbers, in words: 1.0 μM, day-5 replated progenitors, 4 days of exposure. It is filed as cell-based, human. Here is the method:
Insulin and signaling agonists were omitted after 1 day. On days 2‐3, the nascent mesodermal cells were specified to the cardiac lineage using 0.2 μM C‐59 (R&D Tocris) supplementation. Culture medium was replaced daily.
Basal cardiac progenitor medium was composed of DMEM/F12 (ThermoFisher Scientific), insulin/transferrin/selenium supplement, 0.1% human serum albumin (Biological Industries Inc, Cromwell, Connecticut), 1× chemically defined lipids (ThermoFisher Scientific), and antibiotics. RAR agonists (1 μM) were added from the day of passaging the cells. Samples were harvested and monitored after 4 days of treatment.
Cell numbers per well were quantified following single‐cell dissociation with Accutase and using standard Neubauer counting chambers. RT‐qPCR and immunocytochemistry were performed according to standard procedures. RPL37A served as housekeeping gene for normalization.

In data set [3] the test system is human iPS-derived cardiac progenitor cells (CPCs). Put plainly: CPC proliferation assay (nuclear count). The data set is classed as cell-based. The method, then:
(§1) The CPC proliferation assay including image and data analysis was performed as previously described.14 Cardiac progenitor marker antibodies are listed in Table S3.
A library of 10 000 compounds was screened in singlicate at three concentrations (0.1, 1.0, and 10 μM) in the CPC proliferation assay. Each plate contained neutral controls, 0.1% DMSO and maximum controls, 100 ng/mL human basic fibroblast growth factor (FGF; Invitrogen, ThermoFisher Scientific, Waltham, Massachusetts). The data were analyzed using the Genedata Screener software (Genedata, Inc, Basel, Switzerland). […] Results were calculated using the following calculation method: compound % effect = 100 × [(X − min)/(max − min)], where X represents a normalized value for the compound based on the neutral and maximum controls.
The library was screened in three‐point concentration response (CR) at 0.1, 1.0, and 10 μM measuring proliferation of human induced pluripotent stem (iPS)‐derived CPCs with nuclear count, as measured by Hoechst staining, as the primary endpoint.

Data set [4] has as its target T1, RARA (alpha) ligand binding domain (Homo sapiens, UniProt P10276).
T1 sequence (P10276 183-417 limits assumed): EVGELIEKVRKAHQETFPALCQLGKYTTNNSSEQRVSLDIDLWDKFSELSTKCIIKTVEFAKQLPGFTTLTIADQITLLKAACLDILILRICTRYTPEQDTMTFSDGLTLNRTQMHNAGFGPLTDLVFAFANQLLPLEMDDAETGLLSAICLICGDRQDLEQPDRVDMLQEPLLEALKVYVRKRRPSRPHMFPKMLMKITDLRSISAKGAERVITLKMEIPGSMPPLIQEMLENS
Put plainly: RAR LBD-SRC1-2 coactivator peptide recruitment assay, agonist format, RARA. The data set is classed as biochemical. As to conditions: for EC50: read-out: RARα pEC50 (converted). Here is the method: (§2) RAR ligand binding domain (LBD)‐SRC1‐2 coactivator peptide (NCOA1_677‐700 biotinylated) recruitment assays were established for the three RAR isotypes RARA (alpha), RARB (beta), and RARG (gamma) to determine relative potencies. […] A total of 0.4 μL of a fixed concentration range of test ligands dissolved in dimethyl sulphoxide (DMSO) was added to assay plates using an acoustic liquid dispenser. […] The raw data were transformed to % effect using the equation: compound % effect = 100 × [(X − min)/(max − min)], where X represents the effect in the presence of test compound and max and min are the effects in presence of the maximum and minimum controls, respectively.
(§3) The data were plotted to generate concentration‐response profiles and the concentration‐response curves were fit to the data using the four‐parameter logistic smart fit method in the Genedata Screener software (Genedata, Inc).

In data set [5] the target is T2, RARB (beta) ligand binding domain (Homo sapiens, UniProt P10826).
T2 sequence (P10826 183-417 limits assumed): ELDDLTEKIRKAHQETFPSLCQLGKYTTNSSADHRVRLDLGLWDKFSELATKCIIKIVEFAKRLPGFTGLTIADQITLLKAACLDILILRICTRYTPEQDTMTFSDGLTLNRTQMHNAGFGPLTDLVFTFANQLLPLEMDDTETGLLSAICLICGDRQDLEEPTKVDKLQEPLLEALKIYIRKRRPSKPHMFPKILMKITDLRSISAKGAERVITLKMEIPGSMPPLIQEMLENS
Description: RAR coactivator peptide recruitment assay, antagonist format, RARB. The conditions noted are these: for IC50: read-out: RARβ pIC50 (converted). The data set is classed as biochemical. Here is the method: as §2, §3

Data set [6] addresses T3, RARG (gamma) ligand binding domain (Homo sapiens, UniProt P13631).
T3 sequence (P13631 185-419 limits assumed): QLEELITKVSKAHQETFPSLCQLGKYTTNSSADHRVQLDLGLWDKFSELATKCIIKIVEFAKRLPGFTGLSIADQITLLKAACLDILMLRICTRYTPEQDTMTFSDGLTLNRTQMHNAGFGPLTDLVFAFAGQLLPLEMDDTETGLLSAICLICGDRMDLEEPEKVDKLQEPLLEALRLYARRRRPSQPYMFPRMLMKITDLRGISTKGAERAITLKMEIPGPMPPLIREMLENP
Description: RAR coactivator peptide recruitment assay, antagonist format, RARG. The data set is classed as biochemical. The conditions noted are these: for IC50: 10 nM R-667, read-out: RARγ pIC50 (converted). Here is the method:
as §2, §3

Data set [7] addresses T1, RARA (alpha) ligand binding domain. Description: RAR coactivator peptide recruitment assay, antagonist format, RARA. It is filed as biochemical. The conditions noted are these: for IC50: read-out: RARα pIC50 (converted). Here is the method:
as §2, §3

Data set [8] deals with T3, RARG (gamma) ligand binding domain. Description: RAR LBD-SRC1-2 coactivator peptide recruitment assay, agonist format, RARG. It is filed as biochemical. The conditions noted are these: for EC50: read-out: RARγ pEC50 (converted). Here is the method: as §2, §3
The target of data set [9] is T2, RARB (beta) ligand binding domain. Put plainly: RAR LBD-SRC1-2 coactivator peptide recruitment assay, agonist format, RARB. It is filed as biochemical. As to conditions: for EC50: read-out: RARβ pEC50 (converted). The method, then: as §2, §3
The subject of data set [10] is RAR. Put plainly: RAR coactivator recruitment assay (isotypes not separated). It is filed as biochemical. Here is the method: as §2, §3
Data set [11] concerns iPS-derived CPCs. The conditions noted are these: absence of RAR agonist.
Description: Cells were fixed and nuclei stained on day 4 postplating and 3 days postcompound addition. […] The data represent the mean of two independent experiments each conducted in quadruplicate; error bars indicate SEM. […] The data for CPCs and CFs are obtained from two independent RNA preparations from each cell type
In data set [12] the test system is iPS-derived CPCs. Description: Cardiac progenitor marker antibody staining of treated CPCs. As to conditions: 40 nM, 3 days. It is filed as cell-based, human. Here is the method:
as §1
A key requirement of the screen was that the expanded CPCs must retain their progenitor phenotype.
Figure 2 Cardiac progenitor cells (CPCs) retain progenitor markers after retinoic acid receptor agonist treatment. […] Larger images are representative merged images of Hoechst nuclear stain in blue and immunofluorescence of the indicated progenitor marker in green. Insets show the progenitor marker staining in gray scale at 3.3‐fold higher magnification. Scale bars: 50 μm

In the case of `CC1(C)CCC(C)(C)c2cc(C#Cc3ccc(C(=O)O)cc3)ccc21` [EC 23], the EC50 in data set [1] is 0.00126 µM. Besides, in data set [2], the “terminal cardiac differentiation, in words” value is listed as “pronounced inhibition of terminal cardiac differentiation”; the “expression of cardiac progenitor markers vs untreated” value (from here on “expression … vs untreated”) is “enhanced the expression of cardiac progenitor markers”; the “effect on cell proliferation / cell numbers, in words” value is recorded as “strong positive effects on cell proliferation”. Moreover, the “CPC proliferation, result in words” value in data set [3] was “EC50 values in the low nanomolar range”.

Turning to `C/C(=C\c1ccc(C(=O)O)cc1)c1ccc2c(c1)C(C)(C)CCC2(C)C` [TTNPB], the EC50 in [1] was 0.00316 µM. In addition, in data set [2], the “terminal cardiac differentiation, in words” value was “pronounced inhibition of terminal cardiac differentiation”; the “expression … vs untreated” value is recorded as “enhanced the expression of cardiac progenitor markers”; the “effect on cell proliferation / cell numbers, in words” value is listed as “strong positive effects on cell proliferation”. In addition, the “CPC proliferation, result in words” value in data set [3] was “EC50 values in the low nanomolar range”.

As for `CC1=C(/C=C/C(C)=C/C=C/C(C)=C/CO)C(C)(C)CCC1` [Retinol], the EC50 was more than 20 µM in [4], more than 10 µM in data set [1], more than 20 µM in data set [8] and more than 20 µM in [9]. For the same compound, the IC50 in data set [5], in [6] and in data set [7] was more than 20 µM throughout. In addition, in data set [3], the “CPC proliferation, result in words” value is given as “no effect”. Moreover, the “activity in RAR coactivator recruitment assay, in words” value in data set [10] was “inactive”.

On to `CC1(C)CCC(C)(C)c2cc(C3(c4ccc(C(=O)O)cc4)OCCO3)ccc21` [SR 11237], for which the EC50 was more than 20 µM in data set [4], more than 10 µM in [1], more than 20 µM in data set [8] and more than 20 µM in [9]. Moreover, the IC50 in data set [5] and in data set [7] was more than 20 µM throughout. The “CPC proliferation, result in words” value in [3] is “inactive”.

With `CC1(C)CCC(C)(C)c2cc(C(=O)Nc3ccc(C(=O)O)c(F)c3)ccc21` [AGN 193312], the “top effect (% of maximum control)” value in [4] is listed as 159%. Also, the EC50 in [4] is 0.00398 µM; in [1], 0.00794 µM; in data set [8] it was 0.1 µM; in data set [9] it was 0.01 µM. Besides, the “RARγ pEC50 (% top effect): % top effect” value in [8] came out at 88%. The “CPC proliferation, result in words” value in data set [3] is reported as “EC50 values in the low nanomolar range”. In addition, the “maximal effect (% top effect)” value in data set [9] was 100%.

On to `Cc1ccc(C2=CC(C)(C)Oc3c(Br)cc(C(=O)Nc4ccc(C(=O)O)c(F)c4)cc32)cc1` [AGN 194301], for which the EC50 is more than 20 µM in data set [4], more than 10 µM in data set [1], more than 20 µM in data set [8] and more than 20 µM in data set [9]. Also, the “RARβ pIC50 (% top effect): % top effect” value in data set [5] (antagonist format, 10 nM TTNPB) came out at 105%. Further, the values for the IC50 in data set [5], in [6] and in data set [7] were 0.00126 µM, 0.02 µM and 0.00251 µM, respectively. For the same compound, the “RARγ pIC50 (% top effect): % top effect” value in data set [6] (10 nM R-667) came out at 106%. In data set [7] (antagonist format, 10 nM ATRA), the “RARα pIC50 (% top effect): % top effect” value is listed as 108%. In addition, the “effect on CPC proliferation of antagonist alone” value in [11] is “did not proliferate the cells; also recorded: no effect on proliferation”. Besides, the “toxicity to CPCs” value in [11] is recorded as “no signs of toxicity”.

As for `CC1(C)CCC(C)(C)c2cc(NC(=O)c3ccc(C(=O)O)cc3)ccc21` [AM80], the EC50 in data set [1] is 0.00794 µM. Moreover, the “RARγ pEC50 (% top effect): % top effect” value in data set [8] is listed as 119%. For the same compound, the “expression of cardiac progenitor markers Nkx2.5, Islet1, Gata4, PDGFRα after treatment” value in [12] was “retain expression”. In [2], the “terminal cardiac differentiation, in words” value is “pronounced inhibition of terminal cardiac differentiation”; the “expression … vs untreated” value is recorded as “enhanced the expression of cardiac progenitor markers”; the “effect on cell proliferation / cell numbers, in words” value was “strong positive effects on cell proliferation”. In [3], the “CPC proliferation, result in words” value is “EC50 values in the low nanomolar range”. In addition, in [9], the “maximal effect (% top effect)” value came to 149%.

As for `Cc1cc2c(cc1-c1cc(/C=C/C(=O)O)ccc1O)C(C)(C)CCC2(C)C` [CD 3254], the EC50 was more than 20 µM in [4], more than 10 µM in data set [1], more than 20 µM in [8] and more than 20 µM in [9]. Moreover, the IC50 in data set [5], in data set [6] and in data set [7] was more than 20 µM each time. For the same compound, the “CPC proliferation, result in words” value in data set [3] is “inactive”.

Take `CC1=C(/C=C/C(C)=C\C=C\C(C)=C\C(=O)O)C(C)(C)CCC1` [9‐cis‐retinoic acid]: the EC50 in [1] is more than 10 µM. In data set [3], the “CPC proliferation, result in words” value was “inactive”.
